Experimental data as given in US20090029957A1, “8-BETA-SUBSTITUTED ESTRATRIENES AS SELECTIVELY ACTIVE ESTROGENS” (priority 2007, published 2009).
Like-named read-outs stand apart in the source and are kept apart here.

What was measured:
hERβ [1] = test: Relative binding affinity to hERβ (Kuiper et al.); design: species or system human; conditions: quotient of RBA hERβ to hERα
From the text: (§1) In this case, it is assumed that ERβ predominates in the rat prostates over ERα, and ERα predominates in rat uteri over ERβ.

[2] = tested on: estrogen receptor preparations from rat uteri; test: Competitive 3H-estradiol binding, rat uterus cytosol estrogen receptor; conditions: 3H-estradiol as ligand
From the text: as §1

[3] = tested on: estrogen receptor preparations from rat prostates; test: Competitive 3H-estradiol binding, rat prostate cytosol estrogen receptor; conditions: for Rat prost. ER(RBA): 3H-estradiol as ligand; for prost. ER/uterus ER: ratio of RBA rat prostate ER to rat uterus ER
From the text: as §1

hERβ [4] = conditions: cited from earlier work
adult female rats = test: Dissociation of action of the uterus and pituitary gland (uterus growth and ovulation); type: in vivo, rat; conditions: s.c., four times on four consecutive days
Experimental: The studies with respect to the action on uterus growth and ovulation (indirect effect by influencing the secretion of pituitary gland hormones) are performed on adult female rats (body weight of 220-250 g). The substances are subcutaneously administered four times on four consecutive days. The first administration is carried out in the metestrus. One day after the last administration, the autopsy is carried out. The number of oocytes in the Fallopian tube (effect on the ovulation) as well as the uterus weight are determined.

Row | Structure (SMILES) | Rat uterus ER(RBA) ([2]; Table 1, estradiol = 100) | Rat prost. ER(RBA) ([3]; Table 1, estradiol = 100) | Rat uterus ER(RBA) ([2]; Table 2) | Rat prost. ER(RBA) ([3]; Table 2) | prost. ER/uterus ER ([3]; Table 2) | also measured
1 | C[C@]12CC[C@H](O)CC1=CCC1C2CC[C@@]2(C)C1CC[C@@H]2O (stereo partly drawn) [5-Andro-stene-diol] | 0.1 | 5 |  |  |  | ERβ/ERα (hERβ [1]): 3; prost. ER/uterus ER ([3]; Table 1): 50; hERβ RBA* (hERβ [4]): 17
2 | C=C[C@@]12CCc3cc(O)ccc3[C@H]1CC[C@@]1(C)[C@H]2C[C@@H](F)[C@@H]1O [Compound 1, 8β-Vinyl-estra-1,3,5(10)-16α-fluoro-3,17β-diol] |  |  | 1.7 | 167 | 98 | 
3 | C=C[C@@]12CCc3cc(O)ccc3[C@H]1CC[C@@]1(C)[C@H]2CC[C@@H]1O [Compound 2, 8β-Vinyl-estra-1,3,5(10)-3,17β-diol] |  |  | 0.7 | 63 | 90 | 
4 | C[C@]12CCC3c4ccc(O)cc4CCC3C1CC[C@@H]2O (stereo partly drawn) [Estradiol] | 100 | 100 |  |  |  | ED50, dose-dependent ovulation inhibition and increase in uterus weight (adult female rats): 0.004 mg/kg of body weight
5 | C[C@]12CC[C@@H]3c4ccc(O)cc4CC[C@H]3[C@@H]1C[C@@H](O)[C@@H]2O [Estriol] |  |  |  |  |  | hERβ RBA* (hERβ [4]; relative binding affinity, estradiol = 100, cited from Kuiper et al.): 21
